Usually mortality stands for the percentage killed.

Assay [1] has as its system Cabbage Looper (Trichoplusia ni). Briefly: Bioassay on Cabbage Looper (CL), 128-well diet tray assay. The conditions noted are these: for pest or weed control at 50 µg/cm2: Cabbage Looper, Table ABC, read-out: CL rating. Type of assay: in vivo. The procedure, abridged:
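Mortality after five to seven days at 25° C (14:10 photoperiod), averaged over eight wells per compound. Diet in each well carried 50 μg/cm^2 of dried test molecule and received one to five second-instar larvae.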

In assay [2] the test system is Beet Armyworm (Spodoptera exigua). Briefly: Bioassay on Beet Armyworm (BAW), 128-well diet tray assay. The class given is in vivo. The conditions noted are these: for pest or weed control at 50 µg/cm2: Beet Armyworm, Table ABC, read-out: BAW rating. In a few lines:
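Percent mortality, averaged over eight wells, was scored after five to seven days at 25° C under 14:10 light-dark. Each well's diet carried 50 μg/cm^2 of test molecule applied in acetone-water (90:10) and dried before one to five second-instar larvae were added.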

For `CC(F)(F)CNC(=O)C1(NC(=O)c2ccc(/C(F)=C/C(c3cc(Cl)c(Cl)c(Cl)c3)C(F)(F)F)cc2C(F)(F)F)CC1` (centres unmarked) [F92, (Z)—N-(1-((2,2-Difluoropropyl)carbamoyl)cyclopropyl)-4-(1,4,4,4-tetrafluoro-3-(3,4,5-trichlorophenyl)but-1-en-1-yl)-2-(trifluoromethyl)benzamide], the pest or weed control at 50 µg/cm2 in assay [1] and in assay [2] was 50 to 100% throughout.

On to `CCNC(=O)[C@@H](C)NC(=O)c1ccc(/C(F)=C/C(c2cc(Cl)c(Cl)c(Cl)c2)C(F)(F)F)cc1C(F)(F)F` (stereo partly drawn) [F63, N—((R)-1-(Ethylamino)-1-oxopropan-2-yl)-4-((Z)-1,4,4,4-tetrafluoro-3-(3,4,5-trichlorophenyl)but-1-en-1-yl)-2-(trifluoromethyl)benzamide], for which the pest or weed control at 50 µg/cm2 in assay [1] and in assay [2] was 50 to 100% each time.

As for `C[C@@H](NC(=O)c1ccc(/C(F)=C/C(c2cc(Cl)c(Cl)c(Br)c2)C(F)(F)F)cc1C(F)(F)F)C(=O)NCC(F)(F)F` (stereo partly drawn) [F185, 4-((Z)-3-(3-Bromo-4,5-dichlorophenyl)-1,4,4,4-tetrafluorobut-1-en-1-yl)-N—((R)-1-oxo-1-((2,2,2-trifluoroethyl)amino)propan-2-yl)-2-(trifluoromethyl)benzamide], the pest or weed control at 50 µg/cm2 in assay [1] and in assay [2] was 50 to 100% each time.

For the compound `C[C@@H](NC(=O)c1ccc(/C(F)=C/C(c2cc(Cl)cc(C(C)(F)F)c2)C(F)(F)F)cc1C(F)(F)F)C(=O)NCC(F)(F)F` (stereo partly drawn) [F175, 4-((Z)-3-(3-Chloro-5-(1,1-difluoroethyl)phenyl)-1,4,4,4-tetrafluorobut-1-en-1-yl)-N—((R)-1-oxo-1-((2,2,2-trifluoroethyl)amino)propan-2-yl)-2-(trifluoromethyl)benzamide], the pest or weed control at 50 µg/cm2 in assay [1] and in assay [2] was 50 to 100% each time.

`O=C(NC1(C(=O)NCCCC(F)(F)F)CC1)c1ccc(/C(F)=C/C(c2cc(Cl)c(Cl)c(Cl)c2)C(F)(F)F)cc1C(F)(F)F` (centres unmarked) [F89, (Z)-4-(1,4,4,4-Tetrafluoro-3-(3,4,5-trichlorophenyl)but-1-en-1-yl)-N-(1-((4,4,4-trifluorobutyl)carbamoyl)cyclopropyl)-2-(trifluoromethyl)benzamide]: the pest or weed control at 50 µg/cm2 in assay [1] and in assay [2] was 50 to 100% each time.

With `O=C(NC1(C(=O)NCC(F)(F)F)CC1)c1ccc(/C(F)=C/C(c2cc(Cl)c(Cl)c(Cl)c2)C(F)(F)F)cc1Cl` (centres unmarked) [F28, (Z)-2-Chloro-4-(1,4,4,4-tetrafluoro-3-(3,4,5-trichlorophenyl)but-1-en-1-yl)-N-(1-((2,2,2-trifluoroethyl)carbamoyl)cyclopropyl)benzamide], the pest or weed control at 50 µg/cm2 in assay [1] and in assay [2] was 50 to 100% in each case.

As for `Cc1cc(C(/C=C(\F)c2ccc(C(=O)NCC(=O)N(C)CC(F)(F)F)c(C(F)(F)F)c2)C(F)(F)F)ccc1Cl` (centres unmarked) [PF47, (Z)-4-(3-(4-Chloro-3-methylphenyl)-1,4,4,4-tetrafluorobut-1-en-1-yl)-N-(2-(methyl(2,2,2-trifluoroethyl)amino]-2-oxoethyl)-2-(trifluoromethyl)benzamide], the pest or weed control at 50 µg/cm2 in assay [1] and in assay [2] was 50 to 100% each time.

`C=Cc1cc(/C(F)=C/C(c2cc(Cl)c(Cl)c(Cl)c2)C(F)(F)F)ccc1C(=O)N[C@@H]1CON(CC(F)(F)F)C1=O` (stereo partly drawn) [F204, N—((R)-3-Oxo-2-(2,2,2-trifluoroethyl)isoxazolidin-4-yl)-4-((Z)-1,4,4,4-tetrafluoro-3-(3,4,5-trichlorophenyl)but-1-en-1-yl)-2-vinylbenzamide]: the pest or weed control at 50 µg/cm2 in assay [1] and in assay [2] was 50 to 100% throughout.

Consider `C[C@@H](NC(=O)c1ccc(/C(F)=C/C(c2ccc(Cl)c(Cl)c2)C(C)(F)F)cc1C(F)(F)F)C(=O)NCC(F)(F)F` (stereo partly drawn) [F112, 4-((Z)-3-(3,4-Dichlorophenyl)-1,4,4-trifluoropent-1-en-1-yl)-N—((R)-1-oxo-1-((2,2,2-trifluoroethyl)amino)propan-2-yl)-2-(trifluoromethyl)benzamide], for which the pest or weed control at 50 µg/cm2 in assay [1] and in assay [2] was 50 to 100% throughout.

`O=C(NC1(C(=O)NCCC2CC2)CC1)c1ccc(/C(F)=C/C(c2cc(Cl)c(Cl)c(Cl)c2)C(F)(F)F)cc1C(F)(F)F` (centres unmarked) [F4, (Z)—N-(1-((2-cyclopropylethyl)carbamoyl)cyclopropyl)-4-(1,4,4,4-tetrafluoro-3-(3,4,5-trichlorophenyl)but-1-en-1-yl)-2-(trifluoromethyl)benzamide]: the pest or weed control at 50 µg/cm2 in assay [1] and in assay [2] was 50 to 100% in each case.

Consider `C[C@@H](NC(=O)c1ccc(/C(F)=C/C(c2cc(Cl)c(Cl)c(Cl)c2)C(C)(F)F)cc1Cl)C(=O)NCC(F)(F)F` (stereo partly drawn) [PF60, 2-Chloro-N—((R)-1-oxo-1-((2,2,2-trifluoroethyl)amino)propan-2-yl)-4-((Z)-1,4,4-trifluoro-3-(3,4,5-trichlorophenyl)pent-1-en-1-yl)benzamide], for which the pest or weed control at 50 µg/cm2 in assay [1] and in assay [2] was 50 to 100% each time.

For the compound `O=C(CNC(=O)c1ccc(/C(F)=C/C(c2cc(Cl)c(Cl)c(Cl)c2)C(F)(F)F)cc1Cl)NCC(F)(F)F` (centres unmarked) [F22, (Z)-2-Chloro-N-(2-oxo-2-((2,2,2-trifluoroethyl)amino)ethyl)-4-(1,4,4,4-tetrafluoro-3-(3,4,5-trichlorophenyl)but-1-en-1-yl)benzamide], the mortality at 0.05 µg/cm2 came out at 100% in assay [1] (168 h, 0.05 μg/cm^2 on artificial diet, second instar larvae, five to seven days, read-out: CL Percent control (or mortality)) and 100% in assay [2] (168 h, 0.05 μg/cm^2 on artificial diet, second instar larvae, five to seven days, read-out: BAW Percent control (or mortality)). The mortality at 0.5 µg/cm2 in assay [1] (168 h, 0.5 μg/cm^2 on artificial diet, second instar larvae, five to seven days, read-out: CL Percent control (or mortality)) was 100%; in assay [2] (168 h, 0.5 μg/cm^2 on artificial diet, second instar larvae, five to seven days, read-out: BAW Percent control (or mortality)) it was 100%. In addition, the mortality at 5 µg/cm2 in assay [1] (168 h, 5 μg/cm^2 on artificial diet, second instar larvae, five to seven days, read-out: CL Percent control (or mortality)) is 100%; in assay [2] (168 h, 5 μg/cm^2 on artificial diet, second instar larvae, five to seven days, read-out: BAW Percent control (or mortality)), 100%. Also, the pest or weed control at 50 µg/cm2 in assay [1] and in assay [2] was 50 to 100% throughout.

Turning to `Cc1cc(C(/C=C(\F)c2ccc(C(=O)NC3(C(=O)NCC(F)(F)F)CC3)c(C(F)(F)F)c2)C(F)(F)F)ccc1Cl` (centres unmarked) [PF50, (Z)-4-(3-(4-Chloro-3-methylphenyl)-1,4,4,4-tetrafluorobut-1-en-1-yl)-N-(1-((2,2,2-trifluoroethyl)carbamoyl)cyclopropyl)-2-(trifluoromethyl)benzamide], the pest or weed control at 50 µg/cm2 in assay [1] and in assay [2] was 50 to 100% in each case.

Consider `C[C@@H](NC(=O)c1ccc(/C(F)=C/C(c2cc(Cl)cc(OC(F)(F)F)c2)C(F)(F)F)cc1C(F)(F)F)C(=O)NCC(F)(F)F` (stereo partly drawn) [F181, 4-((Z)-3-(3-Chloro-5-(trifluoromethoxy)phenyl)-1,4,4,4-tetrafluorobut-1-en-1-yl)-N—((R)-1-oxo-1-((2,2,2-trifluoroethyl)amino)propan-2-yl)-2-(trifluoromethyl)benzamide], for which the pest or weed control at 50 µg/cm2 in assay [1] and in assay [2] was 50 to 100% in each case.

In the case of `C=C(C)c1cc(C(/C=C(\F)c2ccc(C(=O)N[C@H](C)C(=O)NCC(F)(F)F)c(C(F)(F)F)c2)C(F)(F)F)cc(Cl)c1Cl` (stereo partly drawn) [F187, 4-((Z)-3-(3,4-Dichloro-5-(prop-1-en-2-yl)phenyl)-1,4,4,4-tetrafluoro-but-1-en-1-yl)-N—((R)-1-oxo-1-((2,2,2-trifluoroethyl)amino)propan-2-yl)-2-(trifluoromethyl)benzamide], the pest or weed control at 50 µg/cm2 in assay [1] and in assay [2] was 50 to 100% each time.

With `O=C(N[C@@H]1CON(CC(F)(F)F)C1=O)c1ccc(/C(F)=C/C(c2cc(Cl)c(Cl)c(Cl)c2)C(F)(F)F)cc1Br` (stereo partly drawn) [F198, 2-Bromo-N—((R)-3-oxo-2-(2,2,2-trifluoroethyl)isoxazolidin-4-yl)-4-((Z)-1,4,4,4-tetrafluoro-3-(3,4,5-trichlorophenyl)but-1-en-1-yl)benzamide], the pest or weed control at 50 µg/cm2 in assay [1] and in assay [2] was 50 to 100% each time.

As to `O=C(CNC(=O)c1ccc(/C(F)=C/C(c2ccc(C(F)(F)F)c(Cl)c2)C(F)(F)F)cc1C(F)(F)F)NCC(F)(F)F` (centres unmarked) [F206, (Z)-4-(3-(3-Chloro-4-(trifluoromethyl)phenyl)-1,4,4,4-tetrafluorobut-1-en-1-yl)-N-(2-oxo-2-((2,2,2-trifluoroethyl)amino)ethyl)-2-(trifluoromethyl)benzamide], the pest or weed control at 50 µg/cm2 in assay [1] and in assay [2] was 50 to 100% in each case.

Consider `CCCCNC(=O)[C@@H](C)NC(=O)c1ccc(/C(F)=C/C(c2cc(Cl)c(Cl)c(Cl)c2)C(F)(F)F)cc1C(F)(F)F` (stereo partly drawn) [F16, N—((R)-1-(Butylamino)-1-oxopropan-2-yl)-4-((Z)-1,4,4,4-tetrafluoro-3-(3,4,5-trichlorophenyl)but-1-en-1-yl)-2-(trifluoromethyl)benzamide], for which the pest or weed control at 50 µg/cm2 in assay [1] and in assay [2] was 50 to 100% each time.

Regarding `CN(CC(F)(F)F)C(=O)C1(NC(=O)c2ccc(/C(F)=C/C(c3ccc(Br)c(Cl)c3)C(F)(F)F)cc2C(F)(F)F)CC1` (centres unmarked) [PF28, (Z)-4-(3-(4-Bromo-3-chlorophenyl)-1,4,4,4-tetrafluorobut-1-en-1-yl]-N-(1-(methyl(2,2,2-trifluoroethyl)carbamoyl)cyclopropyl)-2-(trifluoromethyl)benzamide], the pest or weed control at 50 µg/cm2 in assay [1] and in assay [2] was 50 to 100% each time.

(Values after patent publication US10251394B2, “Molecules having pesticidal utility, and intermediates, compositions, and processes, related thereto” (Dow AgroSciences LLC, priority 2016, dated 2019).)
